In brackets after ≈: the same amount, converted by molar mass.
Experiments:
[1] = test system: H. influR D/BL+; format: cell-based, H. influ; conditions: Table 2C; strain RD/BL+
Description: (§1) The antibacterial efficacy of the present teicoplanin derivatives is illustrated by the following tables. The minimal inhibitory concentrations (MICs) were determined using a standard broth micro-dilution assay.

[2] = test system: E. gall. 245; test: standard broth micro-dilution MIC; format: cell-based; conditions: Table 2C; strain 245
Description: as §1

[3] = test system: St. pneumo P1; test: standard broth micro-dilution MIC; format: cell-based; conditions: Table 2C; strain P1
Description: as §1

[4] = test system: EC14; test: standard broth micro-dilution MIC; format: cell-based; conditions: Table 2C; strain EC14
Description: as §1

[5] = test system: S. aureus S13E; test: standard broth micro-dilution MIC; format: cell-based; conditions: Table 2A; strain S13E
Description: as §1

[6] = test system: E. f. 180-1; test: standard broth micro-dilution MIC; format: cell-based; conditions: Table 2B; strain 180-1
Description: as §1

[7] = test system: E. f. 180; test: standard broth micro-dilution MIC; format: cell-based; conditions: Table 2B; strain 180
Description: as §1

[8] = test system: S. h. 105; test: standard broth micro-dilution MIC; format: cell-based; conditions: Table 2B; strain 105
Description: as §1

[9] = test system: S. aureus SA1199R; test: standard broth micro-dilution MIC; format: cell-based; conditions: Table 2B; strain SA1199R
Description: as §1

[10] = test system: M. cat M12; test: standard broth micro-dilution MIC; format: cell-based; conditions: Table 2C; strain M12
Description: as §1

[11] = test system: S. h. 415; test: standard broth micro-dilution MIC; format: cell-based; conditions: Table 2B; strain 415
Description: as §1

[12] = test system: S. aureus 489; test: standard broth micro-dilution MIC; format: cell-based; conditions: Table 2A; strain 489
Description: as §1

[13] = test system: S. aureus X400; test: standard broth micro-dilution MIC; format: cell-based; conditions: Table 2A; strain X400
Description: as §1

[14] = test system: S. epi 270; test: standard broth micro-dilution MIC; format: cell-based; conditions: Table 2B; strain 270
Description: as §1

[15] = test system: E. f. 2041; test: standard broth micro-dilution MIC; format: cell-based; conditions: Table 2B; strain 2041
Description: as §1

[16] = test system: S. aureus SA1199; test: standard broth micro-dilution MIC; format: cell-based; conditions: Table 2A; strain SA1199
Description: as §1

[17] = test system: H. influ RD; test: standard broth micro-dilution MIC; format: cell-based; conditions: Table 2C; strain RD
Description: as §1

[18] = test system: E. f. 276; test: standard broth micro-dilution MIC; format: cell-based; conditions: Table 2C; strain 276
Description: as §1

[19] = test system: St. pyro C203; test: standard broth micro-dilution MIC; format: cell-based; conditions: Table 2C; strain C203
Description: as §1

[20] = test system: S. aureus 446; test: standard broth micro-dilution MIC; format: cell-based; conditions: Table 2A; strain 446
Description: as §1

[21] = test system: S. aureus 491; test: standard broth micro-dilution MIC; format: cell-based; conditions: Table 2A; strain 491
Description: as §1

[22] = test system: S. aureus 447; test: standard broth micro-dilution MIC; format: cell-based; conditions: Table 2A; strain 447
Description: as §1

[23] = test system: S. aureus X778; test: standard broth micro-dilution MIC; format: cell-based; conditions: Table 2A; strain X778
Description: as §1

[24] = test system: S. aureus SA1199B; test: standard broth micro-dilution MIC; format: cell-based; conditions: Table 2B; strain SA1199B
Description: as §1

[25] = test system: vancomycin-sensitive enterococci; test: mean geometric MIC, vancomycin-sensitive enterococci, broth micro-dilution; format: cell-based, Enterococcus faecium and Enterococcus faecalis; conditions: Table 3, representative vancomycin-sensitive enterococci
Description: as §1

[26] = test system: vancomycin-resistant enterococci; test: mean geometric MIC, vancomycin-resistant enterococci, broth micro-dilution; format: cell-based, Enterococcus faecium and Enterococcus faecalis; conditions: Table 3, representative vancomycin-resistant enterococci
Description: as §1

| SMILES | MIC H. influR D/BL+ [1] [µg/mL] | MIC E. gall. 245 [2] | MIC St. pneumo P1 [3] | MIC EC14 [4] [µg/mL] | MIC S. aureus S13E [5] | MIC E. f. 180-1 [6] | MIC E. f. 180 [7] | MIC S. h. 105 [8] | MIC S. aureus SA1199R [9] | MIC M. cat M12 [10] | MIC S. h. 415 [11] [µg/mL] | MIC S. aureus 489 [12] | MIC S. aureus X400 [13] | MIC S. epi 270 [14] | MIC E. f. 2041 [15] | MIC S. aureus SA1199 [16] | MIC H. influ RD [17] [µg/mL] | MIC E. f. 276 [18] | MIC St. pyro C203 [19] | MIC S. aureus 446 [20] | other results |
| --- | --- | --- | --- | --- | --- | --- | --- | --- | --- | --- | --- | --- | --- | --- | --- | --- | --- | --- | --- | --- | --- |
| CC(=O)NC1C(OC2c3ccc(c(Cl)c3)Oc3cc4cc(c3OC3OC(CO)C(O)C(O)C3N)Oc3ccc(cc3Cl)CC3NC(=O)C(NCc5ccc(-c6ccccc6)cc5)c5ccc(O)c(c5)Oc5cc(O)cc(c5)C(NC3=O)C(=O)NC4C(=O)NC3C(=O)NC2C(=O)NC(C(=O)O)c2cc(O)cc(OC4OC(CO)C(O)C(O)C4O)c2-c2cc3ccc2O)OC(CO)C(O)C1O (stereo not drawn) [Example 2, Deacyl Teicoplanin, N^15-(4-phenylbenzyl) Derivative] | 32 (≈ 16.9 µM) | 0.25 µg/mL (≈ 0.132 µM) | ≤ .03 µg/mL | > 32 | ≤ .03 µg/mL | 0.25 µg/mL (≈ 0.132 µM) | 32 µg/mL (≈ 16.9 µM) | 0.25 µg/mL (≈ 0.132 µM) | ≤ .03 µg/mL | 0.25 µg/mL (≈ 0.132 µM) | 8 (≈ 4.23 µM) | ≤ .03 µg/mL | ≤ .03 µg/mL | 0.25 µg/mL (≈ 0.132 µM) | ≤ .03 µg/mL | ≤ .03 µg/mL | 16 (≈ 8.46 µM) | ≤ .03 µg/mL | ≤ .03 µg/mL | ≤ .03 µg/mL | MIC S. aureus 491 [21]: ≤ .03 µg/mL; MIC S. aureus 447 [22]: 0.25 µg/mL (≈ 0.132 µM); MIC S. aureus X778 [23]: 0.125 µg/mL (≈ 0.0661 µM); MIC S. aureus SA1199B [24]: ≤ .03 µg/mL; Sens. MIC [25]: 2.6 µg/mL; Resist. MIC [26]: > 32 µg/mL |
| CCCCc1ccc(CNC2C(=O)NC3Cc4ccc(c(Cl)c4)Oc4cc5cc(c4OC4OC(CO)C(O)C(O)C4NCc4ccc(CCCC)cc4)Oc4ccc(cc4Cl)C(OC4OC(CO)C(O)C(O)C4NC(C)=O)C4NC(=O)C(NC(=O)C5NC(=O)C(NC3=O)c3cc(O)cc(c3)Oc3cc2ccc3O)c2ccc(O)c(c2)-c2c(OC3OC(CO)C(O)C(O)C3O)cc(O)cc2C(C(=O)O)NC4=O)cc1 (stereo not drawn) [Example 5] | 1 (≈ 0.496 µM) | ≤ .06 µg/mL | ≤ .06 µg/mL | > 64 | 1 µg/mL (≈ 0.496 µM) | ≤ .06 µg/mL | ≤ .06 µg/mL | 0.125 µg/mL (≈ 0.0619 µM) | ≤ .06 µg/mL | ≤ .06 µg/mL | 4 (≈ 1.98 µM) | 0.5 µg/mL (≈ 0.248 µM) | 0.25 µg/mL (≈ 0.124 µM) | 0.25 µg/mL (≈ 0.124 µM) | ≤ .06 µg/mL | 0.25 µg/mL (≈ 0.124 µM) | 64 (≈ 31.7 µM) | ≤ .06 µg/mL | ≤ .06 µg/mL | 0.5 µg/mL (≈ 0.248 µM) | MIC S. aureus 491 [21]: 0.25 µg/mL (≈ 0.124 µM); MIC S. aureus 447 [22]: 0.5 µg/mL (≈ 0.248 µM); MIC S. aureus X778 [23]: 0.25 µg/mL (≈ 0.124 µM); MIC S. aureus SA1199B [24]: 0.25 µg/mL (≈ 0.124 µM); Sens. MIC [25]: 0.25 µg/mL; Resist. MIC [26]: 0.84 µg/mL |
| CC(=O)NC1C(OC2c3ccc(c(Cl)c3)Oc3cc4cc(c3OC3OC(CO)C(O)C(O)C3NCc3ccc5ccccc5c3)Oc3ccc(cc3Cl)CC3NC(=O)C(NCc5ccc6ccccc6c5)c5ccc(O)c(c5)Oc5cc(O)cc(c5)C(NC3=O)C(=O)NC4C(=O)NC3C(=O)NC2C(=O)NC(C(=O)O)c2cc(O)cc(OC4OC(CO)C(O)C(O)C4O)c2-c2cc3ccc2O)OC(CO)C(O)C1O (stereo not drawn) [Example 6] | 1 (≈ 0.499 µM) | ≤ .06 µg/mL | ≤ .06 µg/mL | > 64 | ≤ .06 µg/mL | ≤ .06 µg/mL | 0.25 µg/mL (≈ 0.125 µM) | ≤ .06 µg/mL | ≤ .06 µg/mL | ≤ .06 µg/mL | 4 (≈ 1.99 µM) | ≤ .06 µg/mL | ≤ .06 µg/mL | ≤ .06 µg/mL | ≤ .06 µg/mL | ≤ .06 µg/mL | 16 (≈ 7.98 µM) | ≤ .06 µg/mL | ≤ .06 µg/mL | ≤ .06 µg/mL | MIC S. aureus 491 [21]: ≤ .06 µg/mL; MIC S. aureus 447 [22]: ≤ .06 µg/mL; MIC S. aureus X778 [23]: ≤ .06 µg/mL; MIC S. aureus SA1199B [24]: ≤ .06 µg/mL; Sens. MIC [25]: 0.11 µg/mL; Resist. MIC [26]: 3.4 µg/mL |
| CC(=O)NC1C(OC2c3ccc(c(Cl)c3)Oc3cc4cc(c3OC3OC(CO)C(O)C(O)C3NCc3ccc(-c5ccccc5)cc3)Oc3ccc(cc3Cl)CC3NC(=O)C(NCc5ccc(-c6ccccc6)cc5)c5ccc(O)c(c5)Oc5cc(O)cc(c5)C(NC3=O)C(=O)NC4C(=O)NC3C(=O)NC2C(=O)NC(C(=O)O)c2cc(O)cc(OC4OC(CO)C(O)C(O)C4O)c2-c2cc3ccc2O)OC(CO)C(O)C1O.O=C(O)C(F)(F)F (stereo not drawn) [Example 1, Deacyl Teicoplanin, Bis(4-phenylbenzyl) Derivative] | 64 | ≤ .06 µg/mL | ≤ .06 µg/mL | > 64 | 0.25 µg/mL | ≤ .06 µg/mL | ≤ 06 µg/mL | ≤ .06 µg/mL | ≤ .06 µg/mL | ≤ .06 µg/mL | 4 | 0.125 µg/mL | 0.25 µg/mL | 1 µg/mL | ≤ .06 µg/mL | 0.25 µg/mL | 64 | ≤ .06 µg/mL | ≤ .06 µg/mL | 0.5 µg/mL | MIC S. aureus 491 [21]: 0.25 µg/mL; MIC S. aureus 447 [22]: 2 µg/mL; MIC S. aureus X778 [23]: 0.25 µg/mL; MIC S. aureus SA1199B [24]: 0.5 µg/mL |

— patent US5916873A, “Teicoplanin derivatives” (Eli Lilly and Company, priority 1998, dated 1999)
